Measurements published in US6737383B1, “Herbicidal oxadiazolidines” (priority 1999, dated 2004).

Legend:
[1] = tested on: velvetleaf; experiment: Test B pre/postemergence velvetleaf; type: in vivo, Abutilon theophrasti
In short: (§1)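 Test chemicals in a non-phytotoxic solvent mixture with surfactant were sprayed preemergence onto planted seeds and postemergence onto plants 2 to 18 cm tall (1- to 4-leaf stage). After twelve to sixteen days in a greenhouse, injury was visually rated against untreated controls from 0 (no effect) to 10 (complete control).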

[2] = tested on: surinam grass; experiment: Test B pre/postemergence surinam grass; type: in vivo, Brachiaria decumbens
In short: as §1

[3] = tested on: bedstraw; experiment: Test B pre/postemergence bedstraw; type: in vivo, Galium aparine; conditions: Preemergence; for Bedstraw plant response rating: scale 0 to 10, 0 is no effect, 10 is complete control
In short: as §1

[4] = tested on: pigweed; experiment: Test B pre/postemergence pigweed; type: in vivo, Amaranthus retroflexus
In short: as §1

[5] = tested on: corn; experiment: Test B pre/postemergence corn; type: in vivo, Zea mays
In short: as §1

[6] = tested on: morningglory; experiment: Test B pre/postemergence morningglory; type: in vivo, Ipomoea hederacea
In short: as §1

[7] = tested on: cocklebur; experiment: Test B pre/postemergence cocklebur; type: in vivo, Xanthium strumarium
In short: as §1

[8] = tested on: sugar beet; experiment: Test B pre/postemergence sugar beet; type: in vivo, Beta vulgaris
In short: as §1

[9] = tested on: wheat; experiment: Test B pre/postemergence wheat; type: in vivo, Triticum aestivum
In short: as §1

[10] = tested on: rape; experiment: Test B pre/postemergence rape; type: in vivo, Brassica napus
In short: as §1

[11] = tested on: purple nutsedge; experiment: Test B pre/postemergence purple nutsedge; type: in vivo, Cyperus rotundus
In short: as §1

[12] = tested on: soybean; experiment: Test B pre/postemergence soybean; type: in vivo, Glycine max
In short: as §1

[13] = tested on: wild oat; experiment: Test B pre/postemergence wild oat; type: in vivo, Avena fatua
In short: as §1

[14] = tested on: blackgrass; experiment: Test B pre/postemergence blackgrass; type: in vivo, Alopecurus myosuroides
In short: as §1

[15] = tested on: giant foxtail; experiment: Test B pre/postemergence giant foxtail; type: in vivo, Setaria faberii
In short: as §1

[16] = tested on: crabgrass; experiment: Test B pre/postemergence crabgrass; type: in vivo, Digitaria sanguinalis
In short: as §1

[17] = Postemergence, Rate 62 g/ha, scale of 0 to 10, 0 is no effect, 10 is complete control
[18] = Postemergence, Rate 125 g/ha, scale 0 to 10, 0 is no effect, 10 is complete control
[19] = Postemergence, Rate 500 g/ha, scale 0 to 10, 0 is no effect, 10 is complete control
[20] = Preemergence, Rate 62 g/ha, scale of 0 to 10 where 0 is no effect and 10 is complete control
[21] = Preemergence, Rate 125 g/ha, scale 0 to 10, 0 is no effect, 10 is complete control
[22] = Preemergence, Rate 500 g/ha, scale of 0 to 10 where 0 is no effect and 10 is complete control
[23] = Preemergence, Rate 250 g/ha, scale 0 to 10, 0 is no effect, 10 is complete control
[24] = Postemergence, Rate 250 g/ha, scale 0 to 10

`COCCOCn1c(=O)on(C(=O)N(c2ccc(F)cc2F)C(C)C)c1=O` [Compound 505] was tested, and the “Velvetleaf plant response rating” value [1, 17] was 0, the “Velvetleaf plant response rating” value [1, 18] was 0 and the “Plant response rating, Velvetleaf” value [1, 19] was 4. For the same molecule, the “Plant response rating, Velvetleaf” value [1, 20] was 0, the “Velvetleaf plant response rating” value [1, 21] was 2 and the “Velvetleaf plant response rating” value [1, 22] was 10. The “B. signalgrass plant response rating” value [2, 17] was 0, the “B. signalgrass plant response rating” value [2, 18] was 3 and the “B. signalgrass plant response rating” value ([2]; Postemergence, Rate 250 g/ha, scale 0 to 10, 0 no effect, 10 complete control) was 8. For the same molecule, the “Plant response rating, B. signalgrass” value [2, 19] was 8, the “Plant response rating, B. signalgrass” value [2, 20] was 0 and the “B. signalgrass plant response rating” value [2, 23] was 2. For the same molecule, the “B. signalgrass plant response rating” value ([2]; Preemergence, Rate 500 g/ha, scale 0 to 10, 0 is no effect, 10 is complete control) was 6, the “Plant response rating, Bedstraw” value ([3]; Rate 62 g/ha, scale of 0 to 10 where 0 is no effect and 10 is complete control) was 0 and the “Bedstraw plant response rating” value ([3]; Rate 125 g/ha) was 0. The “Bedstraw plant response rating” value ([3]; Rate 250 g/ha) was 8, the “Bedstraw plant response rating” value ([3]; Rate 500 g/ha) was 9 and the “Redroot pigweed plant response rating” value [4, 17] was 0. For the same molecule, the “Redroot pigweed plant response rating” value [4, 18] was 0, the “Plant response rating, Redroot pigweed” value [4, 19] was 9 and the “Plant response rating, Redroot pigweed” value [4, 20] was 9. For the same molecule, the “Redroot pigweed plant response rating” value [4, 21] was 10, the “Redroot pigweed plant response rating” value [4, 22] was 10 and the “Corn plant response rating” value [5, 17] was 0. The “Corn plant response rating” value [5, 18] was 3, the “Corn plant response rating” value [5, 24] was 6 and the “Plant response rating, Corn” value [5, 19] was 6. The “Plant response rating, Corn” value [5, 20] was 2, the “Corn plant response rating” value [5, 21] was 2 and the “Corn plant response rating” value [5, 22] was 6. For the same molecule, the “Morningglory plant response rating” value [6, 17] was 5, the “Morningglory plant response rating” value [6, 18] was 5 and the “Plant response rating, Morningglory” value [6, 19] was 7. For the same molecule, the “Plant response rating, Morningglory” value [6, 20] was 0, the “Morningglory plant response rating” value [6, 21] was 0 and the “Morningglory plant response rating” value [6, 22] was 3. For the same molecule, the “Cocklebur plant response rating” value [7, 17] was 0, the “Cocklebur plant response rating” value [7, 18] was 0 and the “Cocklebur plant response rating” value [7, 24] was 0. The “Plant response rating, Cocklebur” value [7, 19] was 4, the “Plant response rating, Cocklebur” value [7, 20] was 0 and the “Cocklebur plant response rating” value [7, 21] was 0. The “Cocklebur plant response rating” value [7, 23] was 0, the “Cocklebur plant response rating” value [7, 22] was 2 and the “Sugarbeets plant response rating” value [8, 17] was 3. The “Sugarbeets plant response rating” value [8, 18] was 5, the “Plant response rating, Sugarbeets” value [8, 19] was 9 and the “Plant response rating, Sugarbeets” value [8, 20] was 3. For the same molecule, the “Sugarbeets plant response rating” value [8, 21] was 3, the “Sugarbeets plant response rating” value [8, 22] was 8 and the “Wheat plant response rating” value [9, 17] was 0. For the same molecule, the “Wheat plant response rating” value [9, 18] was 2, the “Plant response rating, Wheat” value [9, 19] was 4 and the “Plant response rating, Wheat” value [9, 20] was 3. The “Wheat plant response rating” value [9, 21] was 7, the “Wheat plant response rating” value [9, 22] was 8 and the “Rape plant response rating” value [10, 17] was 0. The “Rape plant response rating” value [10, 18] was 0, the “Plant response rating, Rape” value [10, 19] was 2 and the “Plant response rating, Rape” value [10, 20] was 4. For the same molecule, the “Rape plant response rating” value [10, 21] was 4, the “Rape plant response rating” value [10, 22] was 9 and the “Nutsedge plant response rating” value [11, 17] was 0. For the same molecule, the “Nutsedge plant response rating” value [11, 18] was 2, the “Plant response rating, Nutsedge” value [11, 19] was 2 and the “Plant response rating, Nutsedge” value [11, 20] was 3. For the same molecule, the “Nutsedge plant response rating” value [11, 21] was 10, the “Nutsedge plant response rating” value [11, 22] was 8 and the “Soybean plant response rating” value [12, 17] was 1. For the same molecule, the “Soybean plant response rating” value [12, 18] was 2, the “Plant response rating, Soybean” value [12, 19] was 5 and the “Plant response rating, Soybean” value [12, 20] was 0. The “Soybean plant response rating” value [12, 21] was 0, the “Soybean plant response rating” value [12, 22] was 5 and the “Wild oats plant response rating” value [13, 17] was 0. For the same molecule, the “Wild oats plant response rating” value [13, 18] was 2, the “Plant response rating, Wild oats” value [13, 19] was 3 and the “Plant response rating, Wild oats” value [13, 20] was 2. For the same molecule, the “Wild oats plant response rating” value [13, 21] was 2, the “Wild oats plant response rating” value [13, 22] was 9 and the “Blackgrass plant response rating” value [14, 17] was 2. For the same molecule, the “Blackgrass plant response rating” value [14, 18] was 4, the “Blackgrass plant response rating” value [14, 24] was 7 and the “Plant response rating, Blackgrass” value [14, 19] was 7. For the same molecule, the “Plant response rating, Blackgrass” value [14, 20] was 0, the “Blackgrass plant response rating” value [14, 21] was 6 and the “Blackgrass plant response rating” value [14, 23] was 7. For the same molecule, the “Blackgrass plant response rating” value [14, 22] was 6, the “Giant foxtail plant response rating” value [15, 17] was 8 and the “Giant foxtail plant response rating” value [15, 18] was 8. The “Plant response rating, Giant foxtail” value [15, 19] was 9, the “Plant response rating, Giant foxtail” value [15, 20] was 9 and the “Giant foxtail plant response rating” value [15, 21] was 9. For the same molecule, the “Giant foxtail plant response rating” value [15, 22] was 10, the “Crabgrass plant response rating” value [16, 17] was 7 and the “Crabgrass plant response rating” value [16, 18] was 7. The “Crabgrass plant response rating” value [16, 24] was 9, the “Plant response rating, Crabgrass” value [16, 19] was 9 and the “Crabgrass plant response rating” value [16, 21] was 6. For the same molecule, the “Crabgrass plant response rating” value [16, 22] was 8.
